Experimental data taken from paper PMC6071991, “Hydroxylated Polybrominated Biphenyl Ethers Exert Estrogenic Effects via Non-Genomic G Protein–Coupled Estrogen Receptor Mediated Pathways” (Environmental Health Perspectives, 2018).
Where two headings read alike, the source gives them in different places.

Tests used:
human GPER = system: human GPER; design: method as in Thomas and Dong 2006; conditions: ref Thomas and Dong 2006; cited from earlier work
GPER [1] = target: T1, GPER (Homo sapiens, UniProt Q99527); experiment: SKBR3 cell-based fluorescence competitive binding assay (E2-F probe, flow cytometry)
GPER [2] = target: T1, GPER; experiment: cell-based
[3] = system: GPER-mediated signaling in SKBR3 cells; experiment: Calcium mobilization assay in SKBR3 cells; type: cell-based, human; conditions: for significant dose-dependent increase in calcium mobilization compared to control: SKBR3 cells; for LOECs, activation of GPER signaling pathways: abstract summary over calcium mobilization and cAMP accumulation in SKBR3 cells
[4] = system: GPER-mediated signaling in SKBR3 cells; experiment: cAMP assay in SKBR3 cells; type: cell-based, human; conditions: for significant dose-dependent increase in cAMP production compared to control / LOEC, cAMP production: SKBR3 cells; for LOEC, cAMP production: 30 min treatment
Experimental: SKBR3 cells ( 2×10^4 cells) were seeded in 96-well microplates which were precoated with a capture antibody for the cAMP-antibody complex (Invitrogen). […].

ERα = system: ERα; design: method as in Li et al. 2013; conditions: ref Li et al. 2013; cited from earlier work
SKBR3 cells [5] = experiment: Boyden chamber cell migration assay; type: cell-based, human; conditions: for LOEC, SKBR3 cell migration, Boyden chamber assay: 48 h
Experimental: SKBR3 cell migration was evaluated using Boyden chamber and wound-healing assays as described previously with slight modification ([Cao et al. 2017]). For the Boyden chamber assay, 24-well plates containing cell culture inserts with 8-μm pore size (Corning) were used. The cells ( 8×10^4 cells, 100μL ) were seeded in the upper chamber, and the lower chamber was supplied with 600μL phenol red–free RPMI 1640 with 10% FBS (Invitrogen). After 12 h, the cells were incubated with phenol red–free RPMI 1640 without FBS for another 12 h. […] After incubation for 48 h, the cells on the upper side of the insert membrane were removed with cotton swabs, and the cells on the lower surface of the membrane were fixed with methanol for 10 min and stained with 0.1% crystal violet (Sigma-Aldrich). Then, the cells were counted under an inverted microscope (ROCTEC) coupled to a camera (Canon), and six fields were randomly chosen per chamber. The relative cell migration was determined by comparing the average number of cells in the six fields of the treated chamber to those in the control chamber.

SKBR3 cells [6] = experiment: Wound-healing cell migration assay; type: cell-based, human; conditions: for LOEC, SKBR3 cell migration, wound-healing assay: 48 h; for LOECs, promotion of SKBR3 cell migration via GPER pathways: abstract summary over Boyden chamber and wound-healing assays
Experimental: For the wound-healing assays, SKBR3 cells were seeded in 12-well microplates at a density of 2.5×10^5 cells/well, incubated first in phenol red–free RPMI 1640 with 10% FBS for 12 h and then in phenol red–free RPMI 1640 without FBS for another 12 h. The cell layer was wounded with a sterile 200-μL pipet tip and washed 3 times with phenol red–free RPMI 1640. […] The closure of the scratch was photographed using an inverted microscope (ROCTEC) coupled to a camera (Canon). The change in the scratch area was evaluated using Image-Pro Plus 6.0 (Media Cybernetics). The relative cell migration was calculated by comparing the change in the wound area in the treated wells with those in the control wells.

SH-SY5Y cells = system: SH-SY5Y cells; design: method as in Tian et al. 2016; conditions: activity inhibited by GPER antagonist G15; ref Tian et al. 2016; cited from earlier work
rats = conditions: exposure of pregnant rats, 1–10mg/kg, cited from earlier work
zebrafish GPER = system: zebrafish GPER; design: method as in Fitzgerald et al. 2015; conditions: ref Fitzgerald et al. 2015, cited from earlier work; for binding to zebrafish GPER at a single tested concentration: 1μM
[7] = ratio between IC50 of E2 and compounds, E2 = 100%
[8] = E2-treated SKBR3 cells, G15 pretreatment 2 h

T1 sequence (Q99527 whole entry): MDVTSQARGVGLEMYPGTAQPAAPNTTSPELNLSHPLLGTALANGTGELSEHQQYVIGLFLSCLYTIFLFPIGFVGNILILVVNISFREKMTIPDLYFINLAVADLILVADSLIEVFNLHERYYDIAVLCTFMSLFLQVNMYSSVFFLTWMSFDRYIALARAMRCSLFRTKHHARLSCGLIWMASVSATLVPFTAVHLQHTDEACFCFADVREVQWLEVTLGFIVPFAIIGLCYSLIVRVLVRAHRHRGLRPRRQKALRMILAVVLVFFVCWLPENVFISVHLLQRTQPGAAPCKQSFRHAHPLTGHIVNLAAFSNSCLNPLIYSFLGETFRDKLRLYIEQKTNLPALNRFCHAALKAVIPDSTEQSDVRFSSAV

In the case of `Clc1ccc(C(c2ccc(Cl)cc2)C(Cl)(Cl)Cl)cc1` [2,2-bis(p-chlorophenyl)-1,1,1-trichloroethane], the “RBA to human GPER compared to E2” value (human GPER) is listed as 0.2–1.3%.
For `Clc1ccc(C(c2ccccc2Cl)C(Cl)Cl)cc1` (stereo not drawn) [2-(2-chlorophenyl)-2-(4-chlorophenyl)-1,1-dichloroethane], the “RBA to human GPER compared to E2” value (human GPER) is given as 0.2–1.3%.
For `Oc1ccccc1Oc1ccc(Br)cc1` [2ʹ-OH-BDE-003, 2'-hydroxy-4-monobromodiphenyl ether], the “RBA (relative binding affinity)” value (GPER [1]; [7]) was 1.3% and the IC50 (GPER [2]) was 20 µM.
With `Oc1c(Br)ccc(Oc2ccc(Br)cc2Br)c1Br` [3-OH-BDE-047, 3-hydroxy-2,2',4,4'-tetrabromodiphenyl ether] the “significant dose-dependent increase in calcium mobilization compared to control” value [3] was “exceptions”, the IC50 (GPER [1]) was 12 µM and the “RBA (relative binding affinity)” value (GPER [1]) was 2.2%. For the same molecule, the “significant dose-dependent increase in cAMP production compared to control” value [4] was “exceptions”.
With `Oc1c(Br)cc(Br)c(Oc2ccc(Br)cc2Br)c1Br` [3-OH-BDE-100, 3-hydroxy-2,2',4,4',6-pentabromodiphenyl ether] the “significant dose-dependent increase in calcium mobilization compared to control” value [3] was “exceptions”, the “RBA (relative binding affinity)” value (GPER [1]) was 7.2% and the IC50 (GPER [2]) was 3.6 µM. For the same molecule, the “significant dose-dependent increase in cAMP production compared to control” value [4] was “exceptions” and the “type of activity on ERα” value (ERα) was “antagonists”.
For `Oc1cccc(Oc2ccc(Br)cc2Br)c1` [3ʹ-OH-BDE-007, 3'-hydroxy-2,4-dibromodiphenyl ether], the “RBA (relative binding affinity)” value (GPER [1]; [7]) was 10.0% and the IC50 (GPER [2]) was 2.6 µM.
With `Oc1cc(Oc2ccc(Br)cc2Br)ccc1Br` [3ʹ-OH-BDE-028, 3'-hydroxy-2,4,4'-tribromodiphenyl ether] the “RBA (relative binding affinity)” value (GPER [1]; [7]) was 8.7% and the IC50 (GPER [2]) was 3 µM.
For `Oc1c(Br)cc(Br)c(Oc2cc(Br)c(Br)cc2Br)c1Br` [3ʹ-OH-BDE-154, 3'-hydroxy-2,2',4,4',5,6'-hexabromodiphenyl ether], the “LOECs, activation of GPER signaling pathways” value (from here on “LOECs, activation”) [3] was 10 to 100 nM, the “LOEC, SKBR3 cell migration, Boyden chamber assay” value (“LOEC … Boyden chamber assay” below) (SKBR3 cells [5]) was 100 nM and the IC50 (GPER [2]) was 1.3 µM. The “LOEC, SKBR3 cell migration, wound-healing assay” value (“LOEC … wound-healing assay” for short) (SKBR3 cells [6]) was 100 nM, the “LOECs, promotion of SKBR3 cell migration via GPER pathways” value (“LOECs, promotion” for short) (SKBR3 cells [6]) was 0.1 to 1 µM and the “type of activity on ERα” value (ERα) was “antagonists”.
With `Oc1c(Br)c(Br)c(Oc2cc(Br)c(Br)cc2Br)c(Br)c1Br` [4-OH-BDE-187, 4-hydroxy-2,2',3,4',5,5',6-heptabromodiphenyl ether] the “RBA (relative binding affinity)” value (GPER [1]; [7]) was 4.2% and the IC50 (GPER [2]) was 6.2 µM.
In the case of `Oc1ccc(-c2cc(Cl)ccc2Cl)c(Cl)c1` [4-hydroxy-2,2ʹ,5ʹ-trichloro-biphenyl], the “RBA to human GPER compared to E2” value (human GPER) is given as 0.2–1.3%.
For `Oc1cc(Br)c(Oc2ccc(Br)cc2Br)cc1Br` [4ʹ-OH-BDE-049, 4'-hydroxy-2,2',4,5'-tetrabromodiphenyl ether], the “LOECs, activation” value [3] was 10 to 100 nM, the “LOEC … Boyden chamber assay” value (SKBR3 cells [5]; text: same LOECs as for the wound-healing assay) was 1000 nM and the “RBA (relative binding affinity)” value (GPER [1]; [7]) was 9.3%. For the same molecule, the IC50 (GPER [2]) was 2.8 µM, the “LOEC … wound-healing assay” value (SKBR3 cells [6]) was 1000 nM and the “LOECs, promotion” value (SKBR3 cells [6]) was 0.1 to 1 µM.
In the case of `Oc1c(Br)c(Br)c(Oc2c(Br)cc(Br)c(Br)c2Br)c(Br)c1Br` [4ʹ-OH-BDE-201, 4'-hydroxy-2,2',3,3',4,5',6,6'-octabromodiphenyl ether], the “RBA (relative binding affinity)” value (GPER [1]; [7]) is reported as 4.9% and the IC50 (GPER [2]) is reported as 5.3 µM.
For `Oc1cc(Oc2cc(Br)c(Br)cc2Br)c(Br)cc1Br` [5ʹ-OH-BDE-099, 5'-hydroxy-2,2',4,4',5-pentabromodiphenyl ether], the “LOECs, activation” value [3] was 10 to 100 nM, the “LOEC … Boyden chamber assay” value (SKBR3 cells [5]) was 100 nM and the IC50 (GPER [2]) was 1.3 µM. The “LOEC … wound-healing assay” value (SKBR3 cells [6]) was 100 nM, the “LOECs, promotion” value (SKBR3 cells [6]) was 0.1 to 1 µM and the “type of activity on ERα” value (ERα) was “antagonists”.
In the case of `Oc1cc(Br)c(Br)c(Br)c1Oc1ccc(Br)cc1Br` [6-OH-BDE-085, 6-hydroxy-2,2',3,4,4'-pentabromodiphenyl ether], the “type of activity on ERα” value (ERα) is listed as “antagonists”.
With `Oc1c(Br)c(Br)c(Br)c(Br)c1Oc1cc(Br)c(Br)cc1Br` [6-OH-BDE-180, 6-hydroxy-2,2',3,4,4',5,5'-heptabromodiphenyl ether] the “RBA (relative binding affinity)” value (GPER [1]; [7]) was 5.4% and the IC50 (GPER [2]) was 4.8 µM.
For `Brc1ccc(Oc2ccc(Br)cc2Br)c(Br)c1` [BDE-047, 2,2',4,4'-tetrabromodiphenyl ether], the “effect on migration of SH-SY5Y cells” value (SH-SY5Y cells) is listed as “stimulated the migration”.
For `Brc1ccc(Oc2cc(Br)c(Br)cc2Br)c(Br)c1` [BDE-099, 2,2',4,4',5-pentabromodiphenyl ether], the “estrogen target genes in the uterus of female offspring” value (rats; ref Ceccatelli et al. 2006) is given as “changes in the regulation of estrogen target genes” and the “sex steroid levels in male and female offspring” value (rats; ref Lilienthal et al. 2006) is given as “decreases in sex steroid levels”.
For `CC(C)(c1ccc(O)cc1)c1ccc(O)cc1` [BPA, bisphenol A], the “RBA to human GPER compared to E2” value (human GPER) is given as 2.8% and the “RBA to zebrafish GPER” value (zebrafish GPER) is given as 15.8%.
With `C[C@]12CC[C@@H]3c4ccc(O)cc4CC[C@H]3[C@@H]1CC[C@@H]2O` [E2, 17β-estradiol, reference compound] the “LOEC … Boyden chamber assay” value (SKBR3 cells [5]) was 1 nM, the “LOEC … wound-healing assay” value (SKBR3 cells [6]) was 1 nM and the “LOEC, cAMP production” value [4] was 1 nM.
In the case of `CC(=O)c1ccc2c(c1)C1C=CCC1C(c1cc3c(cc1Br)OCO3)N2` (stereo not drawn) [G1, reference compound], the “LOEC … Boyden chamber assay” value (SKBR3 cells [5]) is reported as 1 nM, the “LOEC … wound-healing assay” value (SKBR3 cells [6]) is reported as 1 nM and the “LOEC, cAMP production” value [4] is reported as 1 nM.
With `Brc1cc2c(cc1[C@@H]1Nc3ccccc3[C@@H]3C=CC[C@@H]31)OCO2` [G15, reference compound] the “calcium mobilization after G15 pretreatment versus vehicle pretreatment” value [3, 8] was “significantly lower”, the “cell migration after G15 pretreatment versus OH-PBDE alone, Boyden chamber” value (SKBR3 cells [5]; 1μM OH-PBDEs, 10μM G15) was “significantly less cell migration” and the “cell migration after G15 pretreatment versus OH-PBDE alone, wound-healing” value (SKBR3 cells [6]; 1μM OH-PBDEs, 10μM G15) was “significantly less cell migration”. The “cAMP production after G15 pretreatment versus vehicle pretreatment” value [4, 8] was “significantly lower”.
For `O=c1c(-c2ccc(O)cc2)coc2cc(O)cc(O)c12` [genistein], the “RBA to human GPER compared to E2” value (human GPER) is listed as 1.3–13.4%.
In the case of `O=C1C2(Cl)C3(Cl)C4(Cl)C(Cl)(Cl)C5(Cl)C3(Cl)C1(Cl)C5(Cl)C24Cl` (stereo not drawn) [kepone], the “RBA to human GPER compared to E2” value (human GPER) is given as 1.3–13.4%.
In the case of `CC(C)(c1cc(Br)c(O)c(Br)c1)c1cc(Br)c(O)c(Br)c1` [tetrabromobisphenol A], the “binding to zebrafish GPER at a single tested concentration” value (zebrafish GPER) is given as “effective binding”.
In the case of `CC(C)(c1cc(Cl)c(O)c(Cl)c1)c1cc(Cl)c(O)c(Cl)c1` [tetrachlorobisphenol A], the “binding to zebrafish GPER at a single tested concentration” value (zebrafish GPER) is listed as “effective binding”.
For nonylphenol, the “RBA to human GPER compared to E2” value (human GPER) is listed as 1.3–13.4%.
